Laboratory results reported in ChEMBL document CHEMBL3885881, “DrugMatrix”.

Organism: Rattus norvegicus
Experiment: DrugMatrix - Regimen: Daily Repeat
Format: toxicity, organism-based, Sprague-Dawley
Design: regimen Daily Repeat, gender Male, age 6-8 weeks
Details: in vivo, sc, route subcutaneous, vehicle 100 % WATER; for ABSOLUTE BASOPHIL / ABSOLUTE EOSINOPHIL / ABSOLUTE LYMPHOCYTE / ABSOLUTE MONOCYTE / ABSOLUTE SEGMENTED NEUTROPHIL / BASOPHIL / EOSINOPHIL / ERYTHROCYTE COUNT / HEMATOCRIT / HEMOGLOBIN / LEUKOCYTE COUNT / LYMPHOCYTE / MEAN CORPUSCULAR HEMOGLOBIN / MEAN CORPUSCULAR HEMOGLOBIN CONCENTRATION / MEAN CORPUSCULAR VOLUME / MONOCYTE / NEUTROPHIL / NUCLEATED RED BLOOD CELLS / PLATELET COUNT: tissue Blood; for ALANINE AMINOTRANSFERASE / ALBUMIN / ALKALINE PHOSPHATASE / ASPARTATE AMINOTRANSFERASE / BLOOD UREA NITROGEN / CARBON DIOXIDE / CHLORIDE / CHOLESTEROL / CREATINE PHOSPHOKINASE / CREATININE / GLUCOSE / LACTATE DEHYDROGENASE / LIPASE / PHOSPHORUS / POTASSIUM / SODIUM / TOTAL BILIRUBIN / TOTAL PROTEIN / URIC ACID: tissue Plasma
[1] = 20 mg/kg, 72 h, dose level Low, time 3 day
[2] = 20 mg/kg, 120 h, dose level Low, time 5 day
[3] = 71 mg/kg, 72 h, dose level High, time 3 day
[4] = 71 mg/kg, 120 h, dose level High, time 5 day

With CCN(CC)CC(=O)Nc1c(C)cccc1C [LIDOCAINE] the “ABSOLUTE BASOPHIL” value [1] was 0 CELLS/uL, the “ABSOLUTE EOSINOPHIL” value [1] was 58 CELLS/uL and the “ABSOLUTE LYMPHOCYTE” value [1] was 13101.33 CELLS/uL. The “ABSOLUTE MONOCYTE” value [1] was 107 CELLS/uL, the “ABSOLUTE SEGMENTED NEUTROPHIL” value [1] was 1100.33 CELLS/uL and the BASOPHIL [1] was 0%. The EOSINOPHIL [1] was 0.33%, the “ERYTHROCYTE COUNT” value [1] was 5.32 x10E6/uL and the HEMATOCRIT [1] was 35.17%. The HEMOGLOBIN [1] was 13.77 G/DL, the “LEUKOCYTE COUNT” value [1] was 14.37 x10E3/uL and the LYMPHOCYTE [1] was 91.33%. The “MEAN CORPUSCULAR HEMOGLOBIN” value [1] was 25.9 pg, the “MEAN CORPUSCULAR HEMOGLOBIN CONCENTRATION” value [1] was 39.17 G/DL and the “MEAN CORPUSCULAR VOLUME” value [1] was 66.2 fL. The MONOCYTE [1] was 0.67%, the NEUTROPHIL [1] was 7.67% and the “NUCLEATED RED BLOOD CELLS” value [1] was 0 /100WBC. The “PLATELET COUNT” value [1] was 1245 x10E3/uL, the “ALANINE AMINOTRANSFERASE” value [1] was 52.67 u/L and the ALBUMIN [1] was 4.23 G/DL. For the same molecule, the “ALKALINE PHOSPHATASE” value [1] was 369 u/L, the “ASPARTATE AMINOTRANSFERASE” value [1] was 87.33 u/L and the “BLOOD UREA NITROGEN” value [1] was 16 mg/dL. The “CARBON DIOXIDE” value [1] was 26.67 mmol/L, the CHLORIDE [1] was 102.67 MEQ/L and the CHOLESTEROL [1] was 79.33 mg/dL. For the same molecule, the “CREATINE PHOSPHOKINASE” value [1] was 215.67 u/L, the CREATININE [1] was 0.21 mg/dL and the GLUCOSE [1] was 154.67 mg/dL. The “LACTATE DEHYDROGENASE” value [1] was 355.67 u/L, the LIPASE [1] was 9.67 u/L and the PHOSPHORUS [1] was 15.3 mg/dL. For the same molecule, the POTASSIUM [1] was 7.3 MEQ/L, the SODIUM [1] was 148.67 MEQ/L and the “TOTAL BILIRUBIN” value [1] was 0.23 mg/dL. The “TOTAL PROTEIN” value [1] was 6.03 G/DL, the “URIC ACID” value [1] was 1.9 mg/dL and the “ABSOLUTE BASOPHIL” value [2] was 0 CELLS/uL. For the same molecule, the “ABSOLUTE EOSINOPHIL” value [2] was 102.67 CELLS/uL, the “ABSOLUTE LYMPHOCYTE” value [2] was 14629.33 CELLS/uL and the “ABSOLUTE MONOCYTE” value [2] was 338.67 CELLS/uL. For the same molecule, the “ABSOLUTE SEGMENTED NEUTROPHIL” value [2] was 1862.67 CELLS/uL, the BASOPHIL [2] was 0% and the EOSINOPHIL [2] was 0.67%. The “ERYTHROCYTE COUNT” value [2] was 5.48 x10E6/uL, the HEMATOCRIT [2] was 33.93% and the HEMOGLOBIN [2] was 13.57 G/DL. For the same molecule, the “LEUKOCYTE COUNT” value [2] was 16.93 x10E3/uL, the LYMPHOCYTE [2] was 86.67% and the “MEAN CORPUSCULAR HEMOGLOBIN” value [2] was 24.77 pg. For the same molecule, the “MEAN CORPUSCULAR HEMOGLOBIN CONCENTRATION” value [2] was 40 G/DL, the “MEAN CORPUSCULAR VOLUME” value [2] was 61.93 fL and the MONOCYTE [2] was 2%. The NEUTROPHIL [2] was 10.67%, the “NUCLEATED RED BLOOD CELLS” value [2] was 0 /100WBC and the “PLATELET COUNT” value [2] was 1256.33 x10E3/uL. The “ALANINE AMINOTRANSFERASE” value [2] was 59.33 u/L, the ALBUMIN [2] was 3.73 G/DL and the “ALKALINE PHOSPHATASE” value [2] was 375.67 u/L. For the same molecule, the “ASPARTATE AMINOTRANSFERASE” value [2] was 92 u/L, the “BLOOD UREA NITROGEN” value [2] was 17.67 mg/dL and the “CARBON DIOXIDE” value [2] was 26 mmol/L. For the same molecule, the CHLORIDE [2] was 108 MEQ/L, the CHOLESTEROL [2] was 77.33 mg/dL and the “CREATINE PHOSPHOKINASE” value [2] was 284 u/L. The CREATININE [2] was 0.28 mg/dL, the GLUCOSE [2] was 183.33 mg/dL and the “LACTATE DEHYDROGENASE” value [2] was 154.67 u/L. It also gave an LIPASE [2] of 7.67 u/L, a PHOSPHORUS [2] of 13.6 mg/dL and a POTASSIUM [2] of 6.31 MEQ/L. For the same molecule, the SODIUM [2] was 149.97 MEQ/L, the “TOTAL BILIRUBIN” value [2] was 0.2 mg/dL and the “TOTAL PROTEIN” value [2] was 5.93 G/DL. The “URIC ACID” value [2] was 2.2 mg/dL, the “ABSOLUTE BASOPHIL” value [3] was 0 CELLS/uL and the “ABSOLUTE EOSINOPHIL” value [3] was 49.33 CELLS/uL. The “ABSOLUTE LYMPHOCYTE” value [3] was 11993.67 CELLS/uL, the “ABSOLUTE MONOCYTE” value [3] was 172.33 CELLS/uL and the “ABSOLUTE SEGMENTED NEUTROPHIL” value [3] was 684.67 CELLS/uL. For the same molecule, the BASOPHIL [3] was 0%, the EOSINOPHIL [3] was 0.33% and the “ERYTHROCYTE COUNT” value [3] was 5.73 x10E6/uL. For the same molecule, the HEMATOCRIT [3] was 35.87%, the HEMOGLOBIN [3] was 14.23 G/DL and the “LEUKOCYTE COUNT” value [3] was 12.9 x10E3/uL. The LYMPHOCYTE [3] was 92.67%, the “MEAN CORPUSCULAR HEMOGLOBIN” value [3] was 24.83 pg and the “MEAN CORPUSCULAR HEMOGLOBIN CONCENTRATION” value [3] was 39.7 G/DL. For the same molecule, the “MEAN CORPUSCULAR VOLUME” value [3] was 62.57 fL, the MONOCYTE [3] was 1.33% and the NEUTROPHIL [3] was 5.67%. For the same molecule, the “NUCLEATED RED BLOOD CELLS” value [3] was 0 /100WBC, the “PLATELET COUNT” value [3] was 1268.67 x10E3/uL and the “ALANINE AMINOTRANSFERASE” value [3] was 46.33 u/L. For the same molecule, the ALBUMIN [3] was 4.37 G/DL, the “ALKALINE PHOSPHATASE” value [3] was 401 u/L and the “ASPARTATE AMINOTRANSFERASE” value [3] was 83.67 u/L. For the same molecule, the “BLOOD UREA NITROGEN” value [3] was 14.67 mg/dL, the “CARBON DIOXIDE” value [3] was 31.33 mmol/L and the CHLORIDE [3] was 101 MEQ/L. For the same molecule, the CHOLESTEROL [3] was 76 mg/dL, the “CREATINE PHOSPHOKINASE” value [3] was 167 u/L and the CREATININE [3] was 0.16 mg/dL. The GLUCOSE [3] was 163.67 mg/dL, the “LACTATE DEHYDROGENASE” value [3] was 124.67 u/L and the LIPASE [3] was 8.67 u/L. It also gave a PHOSPHORUS [3] of 15.9 mg/dL, a POTASSIUM [3] of 7.01 MEQ/L and an SODIUM [3] of 145.9 MEQ/L. The “TOTAL BILIRUBIN” value [3] was 0.17 mg/dL, the “TOTAL PROTEIN” value [3] was 6.07 G/DL and the “URIC ACID” value [3] was 1.8 mg/dL. The “ABSOLUTE BASOPHIL” value [4] was 0 CELLS/uL, the “ABSOLUTE EOSINOPHIL” value [4] was 73.33 CELLS/uL and the “ABSOLUTE LYMPHOCYTE” value [4] was 17902.33 CELLS/uL. The “ABSOLUTE MONOCYTE” value [4] was 276 CELLS/uL, the “ABSOLUTE SEGMENTED NEUTROPHIL” value [4] was 1781.67 CELLS/uL and the BASOPHIL [4] was 0%. For the same molecule, the EOSINOPHIL [4] was 0.33%, the “ERYTHROCYTE COUNT” value [4] was 5.66 x10E6/uL and the HEMATOCRIT [4] was 36.7%. For the same molecule, the HEMOGLOBIN [4] was 14.53 G/DL, the “LEUKOCYTE COUNT” value [4] was 20.03 x10E3/uL and the LYMPHOCYTE [4] was 89%. The “MEAN CORPUSCULAR HEMOGLOBIN” value [4] was 25.67 pg, the “MEAN CORPUSCULAR HEMOGLOBIN CONCENTRATION” value [4] was 39.6 G/DL and the “MEAN CORPUSCULAR VOLUME” value [4] was 64.93 fL. The MONOCYTE [4] was 1.33%, the NEUTROPHIL [4] was 9.33% and the “NUCLEATED RED BLOOD CELLS” value [4] was 0 /100WBC. The “PLATELET COUNT” value [4] was 1384.67 x10E3/uL, the “ALANINE AMINOTRANSFERASE” value [4] was 60 u/L and the ALBUMIN [4] was 4.13 G/DL. For the same molecule, the “ALKALINE PHOSPHATASE” value [4] was 376.33 u/L, the “ASPARTATE AMINOTRANSFERASE” value [4] was 98.33 u/L and the “BLOOD UREA NITROGEN” value [4] was 15.33 mg/dL. The “CARBON DIOXIDE” value [4] was 33.67 mmol/L, the CHLORIDE [4] was 101 MEQ/L and the CHOLESTEROL [4] was 68.33 mg/dL. The “CREATINE PHOSPHOKINASE” value [4] was 240.33 u/L, the CREATININE [4] was 0.42 mg/dL and the GLUCOSE [4] was 147.33 mg/dL. The “LACTATE DEHYDROGENASE” value [4] was 198 u/L, the LIPASE [4] was 10.67 u/L and the PHOSPHORUS [4] was 14.23 mg/dL. For the same molecule, the POTASSIUM [4] was 6.88 MEQ/L, the SODIUM [4] was 148.27 MEQ/L and the “TOTAL BILIRUBIN” value [4] was 0.2 mg/dL. The “TOTAL PROTEIN” value [4] was 6.17 G/DL and the “URIC ACID” value [4] was 1.4 mg/dL.
